Measured values: US20180312493A1, “Antibiotic Compounds, Pharmaceutical Formulations Thereof And Methods And Uses Therefor” (Simon Fraser University, priority 2015, published 2018)
In brackets after ≈: the same amount, converted by molar mass. Like-named read-outs stand apart in the source and are kept apart here.

Tests used:
[1] = molecular target: T1, MRSA Pyk (Staphylococcus aureus, UniProt Q6GG09); experiment: MRSA pyruvate kinase (PK) activity, continuous LDH-coupled assay; assay type: biochemical, methicillin resistant S. aureus (MRSA252)
T1 construct: made in house; host or cells: E. coli BL-21 (DE3)
Excerpt: Genomic DNA of MRSA strain Sanger 252 extracted using DNeasy Tissue Kit™ (Qiagen™) was used as a template to generate the His-tagged MRSA PK. Human cDNA from MCF-7 breast cancer cell line (courtesy of Dr. J Wong, BC Cancer Research Center (Vancouver, Canada)) was used as a template to generate the full-length human M2 PK enzyme. The following primer sets were used creating appropriate restriction sites (NdeI and XhoI sites underlined): For cloning of MRSA PK: M27F 5′-[…]-3′ and M27R 5′-[…]-3′, for cloning of human M2 PK isoform: hM2F 5′-[…]-3′ and hM2R 5′-[…]-3′. The resulting PCR fragments for each construct were cloned into the NdeI and XhoI unique sites of the bacterial expression vector pET-28a (+) (Novagen™). […] The sequence and the correct reading frame of all constructs were verified by sequencing. Human M1, R and L PK constructs in pET-28-a(+) vectors (courtesy of Dr. L. Cantley, Harvard Medical, School (Boston, USA)) were used to generate relevant recombinant His-tagged human PK isoforms.
MRSA and human constructs in pET-28a(+) were used to express relevant recombinant PK proteins in E. coli BL-21 (DE3). The proteins were expressed and purified using Ni-NTA agarose (Qiagen™) according to the manufacturer's protocol. Briefly, cells were grown to an absorbance of 0.4-0.5 at 600 nm in 2×YT medium, then induced with 0.1 mM IPTG for 3 h at 20° C. Cells were lysed by sonication on ice (3×10-s bursts with a 30-s recovery between bursts) in lysis buffer (0.2 mg/ml lysozyme, 50 mM Tris pH 7.5, 10 mM MgCl2, 200 mM NaCl, 100 mM KCl, 10% glycerol, 10 mM imidazole, 0.5% NP-40 and 1 mM DTT containing Complete™ protease inhibitor). Cell lysates were cleared by centrifugation (18,000×g in a Beckman™ JA-20 rotor) for 20 min at 4° C. and PK isoforms were purified by batch binding to Ni-NTA resin. The resins were then packed in columns (1×2 cm) and washed with 400 column volumes lysis buffer containing 30 mM imidazole. His-tagged PK isoforms were eluted with the same buffer containing 300 mM imidazole. The proteins were dialyzed overnight at 4° C. against 2000 volumes of ice-cold 30 mM Tris pH 7.5, 25 mM KCl, 5 mM MgCl2, 10% glycerol and 1 mM DTT to remove imidazole. All purification steps were done at 4° C.; enzymes were flash-frozen and stored at −70° C. Enzymatic activity of frozen protein preparations was stable for at least 10 months and up to 5 freeze/thaw cycles. Purity and physical integrity of proteins were assessed using SDS-polyacrylamide gel electrophoresis (SDS-PAGE) followed by coomassie blue staining. Protein concentration was estimated by Bradford assay (Bio-Rad Protein Assay™) using bovine serum albumin as a standard.
Candidate MRSA PK inhibitors were assayed for their ability to inhibit enzymatic activities of MRSA and human PKs. PK activity was determined using a continuous assay coupled to lactate dehydrogenase (LDH) in which the change in absorbance at 340 nm owing to oxidation of NADH was measured using a Benchmark Plus™ microplate spectrophotometer (Bio-Rad Laboratories, Hercules, Calif.). […] Reactions were initiated by the addition of 15 nM of one of the PK enzymes. PK activity proportional to the rate of change at 340 nm was expressed as specific activity (μmol/min/mg), which is defined as the amount of PK that catalyzes the formation of one micromole of either product per minute. Inhibitors were dissolved in DMSO with the final concentration of the solvent never exceeding 1% of the assay volume. IC50 values were calculated by curve fitting on a four-parameter dose-response model with variable slope using Graphpad Prism 5.0™ (GraphPad™ Software Inc., La Jolla, Calif.). In all studies, less than 10% of total PEP was exhausted during the reaction. Reactions were performed at 30° C. for up to 5 min. All values determined represent at least two measurements, in triplicate (Tables 1-6) or duplicate unless mentioned otherwise. […]

[2] = tested on: S. aureus (ATCC29213); experiment: In vitro susceptibility, broth microdilution (MIC); assay type: cell-based; conditions: Staphylococcus aureus
Excerpt: Epidemic methicillin resistant S. aureus (MRSA) strain sequenced at the Sanger Centre (MRSA252, NRS71) was obtained from NARSA (Network on Antimicrobial Resistance in S. aureus). Methicillin sensitive S. aureus (ATCC 29213 and 25923), methicillin resistant S. aureus (ATCC BAA-1762), and Salmonella typhimurium (ATCC BAA-185) were obtained from ATCC, The Global Bioresource Center. Acinetobacter baumannii (ATCC 19606 and ATCC 17978), Klebsiella pneumonia (C238), vancomycin resistant Enterococci #2 (2010A) (VRE#2), MRSA (USA400, MW2) and Pseudomonas aeruginosa (PA0-1) were obtained from the laboratory of Dr B. B. Finlay at the University of British Columbia (Vancouver, Canada).
The antimicrobial activities of PK inhibitor candidates were determined using the 96-well microtiter standard 2-fold serial broth microdilution method as described by CLSI (formerly NCCLS) with the various gram-positive and gram-negative bacteria species mentioned above. Bacteria from a single colony were grown, overnight in either BHI Broth (VRE), mueller hinton broth (S. aureus 29213; MRSA USA400, A. baumannii 19606, MRSA BAA-1762) or L-broth (P. aeruginosa, S. typhimurium, K. pneumonia and A. baumannii 17978). […] Culture plates were incubated for 18-24 h at 37° C., and optical density at 600 nm (OD600) was measured using a Benchmark Plus™ microplate spectrophotometer (Bio-Rad™). The absorbance control values for the series containing CAMHB and inhibitor were subtracted as background from the corresponding infected wells. Minimal inhibitory concentration (MIC) was defined as the lowest concentration of test compound leading to complete inhibition of cell growth in relation to compound-free control wells as determined by optical density. Vancomycin, methicillin and ciprofloxicin were used as reference compounds. All assays were run in triplicate or duplicate. Experiments were replicated at least twice to verify reproducibility using the above conditions.

[3] = S. aureus ATCC29213, 18-24 h, 37 C, read-out: Antimicrobial activity (MIC) S. aureus ATCC29213

T1 sequence (Q6GG09 whole entry): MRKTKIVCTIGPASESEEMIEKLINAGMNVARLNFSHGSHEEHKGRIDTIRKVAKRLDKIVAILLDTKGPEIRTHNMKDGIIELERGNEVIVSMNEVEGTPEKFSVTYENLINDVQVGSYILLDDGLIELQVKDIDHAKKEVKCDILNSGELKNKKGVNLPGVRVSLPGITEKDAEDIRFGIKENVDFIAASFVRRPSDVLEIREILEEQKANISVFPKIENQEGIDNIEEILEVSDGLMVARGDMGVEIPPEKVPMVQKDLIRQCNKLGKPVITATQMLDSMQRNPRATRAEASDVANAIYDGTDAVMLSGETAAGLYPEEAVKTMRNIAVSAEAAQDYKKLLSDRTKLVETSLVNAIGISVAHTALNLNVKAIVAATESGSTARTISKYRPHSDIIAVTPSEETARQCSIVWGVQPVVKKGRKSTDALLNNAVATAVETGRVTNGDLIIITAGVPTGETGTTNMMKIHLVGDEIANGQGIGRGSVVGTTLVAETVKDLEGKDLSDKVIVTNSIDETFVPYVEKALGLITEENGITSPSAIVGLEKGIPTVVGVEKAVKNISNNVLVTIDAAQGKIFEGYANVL

Compound	IC50 [1] [nM]	MIC [2, 3] [µg/mL]	MIC ([2]; ATCC29213, read-out: Antimicrobial activity (MIC) S. aureus ATCC29213) [µg/mL]
O=C(O)C(F)(F)C(F)(F)C(=O)c1c(/C=C/c2ccc(Cl)cc2)[nH]c2cc(Br)ccc12 [Compound 5, (E)-4-(6-Bromo-2-(4-chlorostyryl)-1H-indol-3-yl)-2,2,3,3-tetrafluoro-4-oxobutanoic Acid]	< 100	32 (≈ 63.4 µM)	–
CN1CCN(CCNC(=O)c2c(C(=O)Nc3ccc(Cl)cc3)[nH]c3cc(Br)ccc23)CC1 [Compound 79, 6-Bromo-N2-(4-chlorophenyl)-N3-(2-(4-methylpiperazin-1-yl)ethyl)-1 H-indole-2,3-dicarboxamide]	< 100	> 64	–
O=C(c1c(CCc2ccc(Cl)cc2)[nH]c2cc(Br)ccc12)C1CCOCC1 [Compound 4, (6-Bromo-2-(4-chlorophenethyl)-1H-indol-3-yl)(tetrahydro-2H-pyran-4-yl)methanone]	< 100	8 (≈ 17.9 µM)	–
NS(=O)(=O)c1c(CCc2ccc(Cl)cc2)[nH]c2cc(Br)ccc12 [Compound 70, 6-Bromo-2-(4-chlorophenethyl)-1H-indole-3-sulfonamide]	> 1000	> 64	–
CS(=O)(=O)OCCOc1cc2[nH]c(-c3cc4ccc(Br)cc4[nH]3)cc2cc1Cl [Compound 198, 2-((6′-Bromo-5-chloro-1H,1′H-[2,2′-biindol]-6-yl)oxy)ethyl Methanesulfonate]	< 100	–	> 64
O=C(NCCN1CCN(C(=O)CCC(=O)N2CCN(CCNC(=O)c3c(/C=C/c4ccc(Cl)cc4)[nH]c4cc(Br)ccc34)CC2)CC1)c1c(/C=C/c2ccc(Cl)cc2)[nH]c2cc(Br)ccc12 [Compound 55, (E)-N,N′-((4,4′-succinylbis(piperazine-4,1-diyl))bis(ethane-2,1-diyl))bis(6-bromo-2-((E)-4-chlorostyryl)-1H-indole-3-carboxamide)]	> 1000	> 64	–
O=C(NC1CN2CCC1CC2)c1c(/C=C/c2ccc(Cl)cc2)[nH]c2cc(Br)ccc12 (stereo not drawn) [Compound 26, (E)-6-Bromo-2-(4-chlorostyryl)-N-(quinuclidin-3-yl)-1H-indole-3-carboxamide]	100 to 1000	8 (≈ 16.5 µM)	–
O=C(Nc1ccc(Cl)cc1)c1[nH]c2cc(Br)ccc2c1C(=O)NCCN1CCNCC1 [Compound 80, 6-Bromo-N2-(4-chlorophenyl)-N3-(2-(piperazin-1-yl)ethyl)-1H-indole-2,3-dicarboxamide]	< 100	> 64	–
NC(=O)[C@@H]1CCCN1CCCCNC(=O)c1c(-c2cc3cc(Cl)ccc3[nH]2)[nH]c2cc(Br)ccc12 [Compound 116, (S)-6-Bromo-N-(4-(2-carbamoylpyrrolidin-1-yl)butyl)-5′-chloro-1H,1′H-[2,2′-biindole]-3-carboxamide]	< 100	> 64	–
CN(C)CCN(C)C(=O)c1c(/C=C/c2ccc(Cl)cc2)[nH]c2cc(Br)ccc12 [Compound 24, (E)-6-Bromo-2-(4-chlorostyryl)-N-(2-(dimethylamino)ethyl)-N-methyl-1H-indole-3-carboxamide]	100 to 1000	> 64	–
N[C@@H](CCCCNC(=O)c1c(/C=C/c2ccc(Cl)cc2)[nH]c2cc(Br)ccc12)C(=O)O [Compound 54, (S,E)-2-Amino-6-(6-bromo-2-(4-chlorostyryl)-1H-indole-3-carboxamido)hexanoic Acid]	< 100	> 64	–
O=C(O)CCC(=O)N1CCN(CCNC(=O)c2c(/C=C/c3ccc(Cl)cc3)[nH]c3cc(Br)ccc23)CC1 [Compound 59, (E)-4-(4-(2-(6-Bromo-2-(4-chlorostyryl)-1H-indole-3-carboxamido)ethyl)piperazin-1-yl)-4-oxobutanoic Acid]	100 to 1000	> 64	–
FC(F)(F)c1c(CCc2ccc(Cl)cc2)[nH]c2cc(Br)ccc12 [Compound 66, 6-Bromo-2-(4-chlorophenethyl)-3-(trifluoromethyl)-1H-indole]	100 to 1000	2 (≈ 4.97 µM)	–
O=C(c1c(-c2cc3ccccc3s2)[nH]c2cc(Br)ccc12)N1CCOCC1 [Compound 75]	> 1000	> 64	–
O=C(NC1CCNCC1)c1c(/C=C/c2ccc(Cl)cc2)[nH]c2cc(Br)ccc12 [Compound 53, (E)-6-Bromo-2-(4-chlorostyryl)-N-(piperidin-4-yl)-1H-indole-3-carboxamide]	< 100	8 (≈ 17.4 µM)	–
NC(=NO)c1c(/C=C/c2ccc(Cl)cc2)[nH]c2cc(Br)ccc12 [Compound 68, 6-Bromo-2-((E)-4-chlorostyryl)-N′-hydroxy-1H-indole-3-carboximidamide]	< 100	8 (≈ 20.5 µM)	–
O=C(O)COc1cc2[nH]c(-c3cc4ccc(Br)cc4[nH]3)cc2cc1Cl [Compound 187, 2-((6′-Bromo-5-chloro-1H,1′H-[2,2′-biindol]-6-yl)oxy)acetic Acid]	< 100	64 (≈ 153 µM)	–
CN(C)CCOC(=O)c1c(C(=O)Nc2ccc(Cl)cc2)[nH]c2cc(Br)ccc12 [Compound 82, 2-(Dimethylamino)ethyl 6-bromo-2-((4-chlorophenyl)carbamoyl)-1 H-indole-3-carboxylate]	< 100	> 64	–
O=C(NCCN1CCN(C(=O)CO)CC1)c1c(/C=C/c2ccc(Cl)cc2)[nH]c2cc(Br)ccc12 [Compound 58, (E)-6-Bromo-2-(4-chlorostyryl)-N-(2-(4-(2-hydroxyacetyl)piperazin-1-yl)ethyl)-1H-indole-3-carboxamide]	< 100	> 64	–
O=C(O)CCNC(=O)c1c(/C=C/c2ccc(Cl)cc2)[nH]c2cc(Br)ccc12 [Compound 39, (E)-3-(6-Bromo-2-(4-chlorostyryl)-1H-indole-3-carboxamido)propanoic Acid]	< 100	> 64	–
CC(C)(C)OC(=O)COc1cc2[nH]c(-c3cc4ccc(Br)cc4[nH]3)cc2cc1Cl [Compound 186, tert-Butyl 2-((6′-bromo-5-chloro-1H,1′H-[2,2′-biindol]-6-yl)oxy)acetate]	< 100	> 64	–
